# Experimental data reported in patent US20030032809A1, “Optimized procedures for the manufacture of paroxetine salts” (priority 2001, published 2003).
# What was measured:
# [1] = prior-art statement; cited from earlier work
# [2] = Solubility of paroxetine salts in water; type: physicochemical
substance,measurement,setting,value
"(−)-trans-4R-(4′-fluorophenyl)-3S-[(3′,4′-methylenedioxyphenyl)oxymethyl]piperidine acetate [paroxetine acetate]","water solubility (in words, background)",[1],excellent water solubility profile
same,solubility,"[2]; purified water, room temperature, purified paroxetine acetate",at least 1000 mg per one ml
same,solubility in water (in words),[2]; water,highly soluble in water
